Data on 60 molecules can be found in the METLIN SMRT retention time set (Domingo-Almenara et al. 2019).

SMILES strings stand for the structures.

This data set is described as follows: gradient 5% acetonitrile 3 min, to 50% in 2 min, to 85% in 15 min, held 3 min, 100 µL/min. To be noted: column: Zorbax Extend-C18 2.1 x 50 mm; eluents: water / acetonitrile, 0.1% formic acid. In short, it runs like this: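 In both positive and negative ionization mode, a quadrupole time-of-flight mass spectrometer coupled to HPLC analyzed pure standards run in mixtures of ~100 molecules. The Zorbax Extend-C18 column (2.1 × 50 mm, 1.8 μm) was operated at 100 μL/min with water and acetonitrile, each containing 0.1% formic acid. The dead volume was 40 μL and the dwell volume 900 μL. Retention time came from adduct peaks that were computationally picked and individually inspected by hand.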
In turn, `CC(C)NC(=O)c1ccc(OCC2CCCN(C(=O)c3cccs3)C2)cc1` (stereo not given) came in with an RP-LC retention time of 818 s.

In turn, `COc1cc(NC(=O)C2CCN(c3nccnc3Sc3ccccc3)CC2)cc(OC)c1OC` yielded an RP-LC retention time of 984 s. On to `COc1cccc(NC(=O)N2CCN(c3cc(C)nc(N4CCCC4)n3)CC2)c1`, for which the RP-LC retention time worked out at 657 s.

Turning to `CCNc1nc(C)cc(N2CCN(C(=O)Nc3cc(OC)ccc3OC)CC2)n1`, the RP-LC retention time came out at 626 s. The figure for `Cc1ccc2c(c1)N(S(C)(=O)=O)CCC(C(=O)N1CCCCC1)O2` (stereo not given) is 862 s. The result for `O=C(NCc1ccc(N2CCCCC2)cc1)C1CCN(c2nnc3ccccn23)CC1` reads 545 s; that for `O=C(NCc1cccc(Br)c1)C1CCCN(C(=O)Cc2cccc3ccccc23)C1` (stereo not given), 978 s; that for `Cn1cnc2c(C(=O)NC3CCCCCC3)nn(-c3ccc(Cl)cc3)c2c1=O`, 929 s.

Molecule `COc1ccccc1NC(=O)N1CCC2(CC1)N=C(c1ccc(Cl)cc1)C(=O)N2` displayed an RP-LC retention time of 884 s. In turn, `CCOC(=O)C1CCN(C(c2cccnc2)c2c(NC(=O)c3ccco3)sc(C)c2C)CC1` (stereo not given) yielded an RP-LC retention time of 926 s. The result for `COC(=O)c1cccc(Nc2c(-c3ccc(N4CCOCC4)cc3)nc3cnccn23)c1` reads 754 s; that for `Cn1nc(-c2nc(C3CC3)no2)c2c1CCN(C(=O)c1cc3c(s1)CCCC3)C2`, 1010 s.

Consider `O=C(NCC#CCN1CCc2ccccc2C1)c1ccc2cc[nH]c2c1`, for which the RP-LC retention time amounted to 579 s. The figure for `CC1CCCCN1CCNC(=O)C1CCN(c2nc3cccnc3s2)CC1` (stereo not given) is 582 s; for `O=C(NC1CCCCCC1)C1CCN(c2nc3ccccc3nc2C(F)(F)F)CC1` it is 1200 s. The figure for `Cc1noc(C)c1Cn1cccc(S(=O)(=O)N2CCCC2)c1=O` is 644 s; for `Cc1ccc(-c2noc(-c3nc(Cc4cccc(F)c4)no3)n2)cc1` it is 1180 s; for `CC1CCCCN1S(=O)(=O)c1ccc(C(=O)Nc2nc3c(s2)Cc2ccccc2-3)cc1` (stereo not given) it is 1190 s.

Consider `CC(C)N1C(=O)c2cccnc2Sc2cc(C(=O)N3CCCN(C)CC3)ccc21`, for which the RP-LC retention time is 596 s. Molecule `Cc1cc(=O)n(CC(=O)Nc2ccc(Cl)cc2)c(-c2ccc(F)cc2)n1` displayed an RP-LC retention time of 1120 s. For the molecule `Cc1nc(-c2ccc3c(c2)CCN3C(=O)c2ccc(F)cc2)cs1`, the RP-LC retention time was found to be 961 s. The result for `O=C(NCc1ccc(Cl)cc1)C1CCN(C(=O)c2cc3ccsc3[nH]2)CC1` reads 797 s; that for `COc1ccccc1CNC(=O)Cn1c(N)nc(C)cc1=O`, 574 s.

The molecule `Fc1ccc(CN2CCc3nc(N4CCN(c5ccccc5F)CC4)ncc3C2)cc1F` showed an RP-LC retention time of 806 s. As to `O=C(Nc1nc(C(=O)N2CCN(c3ncccn3)CC2)co1)c1ccccc1`, the RP-LC retention time was 632 s. In the case of `CCn1ccc(NC(=O)c2ccc(C)cc2C)n1`, the RP-LC retention time was 765 s. The molecule `Cc1cccc(N2CCN(S(=O)(=O)c3cc4c(s3)CCN(C(=O)C3CC3)C4)CC2)c1` had an RP-LC retention time of 1040 s. The figure for `CCOc1ccc(NC(=O)N2CCC(n3cnc4cccnc43)CC2)cc1` is 642 s; for `Cc1cc(F)ccc1NC(=O)Cn1c(C)cc(-c2nnc(C3CCC3)o2)c1C` it is 934 s. The result for `CCNC(=O)c1ccc2nnc(C3CC3)n2c1` reads 590 s. The molecule `COc1cccc(C(=O)Nc2cccn3ncnc23)c1` returned an RP-LC retention time of 710 s. `CC(C)Nc1nc(N2CCN(C3CCCCC3)CC2)nc2c1cnn2C` registered an RP-LC retention time of 648 s.

Take `Cn1ncc2c3ccccc3n(CCCC(=O)NCCCN3CCCC3=O)c2c1=O`: the RP-LC retention time is 665 s.

In turn, `CCOc1ccc(CC(=O)NCC(=O)Nc2nc3ccccc3[nH]2)cc1OCC` showed an RP-LC retention time of 652 s.

For `Cn1cc(C(=O)NCc2ccc3c(c2)OCO3)c(S(=O)(=O)N2CCCCC2)n1`, the RP-LC retention time was 854 s. Molecule `CCC(Oc1ccc(=O)n(-c2ccc(F)cc2)n1)C(=O)NCCc1ccco1` (stereo not given) came in with an RP-LC retention time of 759 s.

In the case of `Cn1nc(C(=O)N2CCCC2)c2c1CCN(C(=O)Nc1ccccc1Br)C2`, the RP-LC retention time came to 737 s. The figure for `CO[C@H]1C(=O)N(C(C)C)[C@H]1C1CCN(C(=O)Nc2ccc(C)c(C)c2)CC1` is 820 s. The result for `O=C(Cc1cc(-c2ccc3c(c2)OCO3)on1)NCc1cccnc1` reads 573 s; that for `O=C(c1ccc(Cl)s1)N1CCN(c2nnc3ccccn23)CC1`, 675 s. The result for `COc1ccc(NC(=O)C2CCN(c3cnc4nc(C)c(C)nc4c3)CC2)cc1Cl` reads 756 s. `CN(C)CCn1nnc2cc(-c3noc(-c4cccc(Cl)c4)n3)ccc21`: the RP-LC retention time was 708 s. The figure for `COc1ccc(-c2nnc(-c3nc(N4CCC5(CC4)OCCO5)c4ccccc4n3)o2)cc1` is 936 s. The result for `CCOC(=O)CNC(=O)N1CCCC1c1ccc(Cl)cc1` (stereo not given) reads 795 s. `O=S(=O)(NCCN1CCN(c2ccccc2F)CC1)c1cc(F)ccc1F` returned an RP-LC retention time of 594 s. Take `COc1cc(-c2nc(Cn3c(C)nc4ccccc4c3=O)no2)cc(OC)c1OC`: the RP-LC retention time was 801 s. `O=C(NCCc1csc(-c2cccs2)n1)C1CCN(C(=O)C2CCCC2)CC1` had an RP-LC retention time of 782 s. The result for `CC(C)c1ccc(NC(=O)Cn2nc(N3CCCC3)c3ccccc3c2=O)cc1` reads 1090 s; that for `Cc1cc(C)n(-c2nc(CC(=O)Nc3ccccc3F)cs2)n1`, 961 s; that for `COc1cc2c(cc1OC)C1C(C(=O)NCCCN3CCCCCC3)c3ccccc3C(=O)N1CC2` (stereo not given), 617 s. Turning to `Cn1ccc2cc(CCC(=O)N3CCCC3)ccc21`, the RP-LC retention time amounted to 789 s. The result for `O=C(Nc1ncc(-c2ccccc2)s1)c1ccc(S(=O)(=O)N2CCCCC2)cc1` reads 1040 s.

`COc1ccc(NS(=O)(=O)c2cc(-c3[nH]ncc3C(=O)N(C)C)oc2C)cc1F`: the RP-LC retention time worked out at 672 s. The figure for `CCOCCCNC(=O)C1c2ccccc2C(=O)N(C)C1c1cccs1` (stereo not given) is 722 s. The result for `Cc1cc2c(cc1S(=O)(=O)N1CCN(c3ccccn3)CC1)OCCN2C` reads 668 s; that for `O=C(c1cc(-c2ccncc2)n[nH]1)N1CCC(C(=O)N2CCN(c3ccc(F)cc3)CC2)CC1`, 611 s; that for `O=C(Cc1ccsc1)Nc1cccn2c(C3CCC3)nnc12`, 745 s.

As for `CC(O)CCC(=O)NCCc1nc2ccccc2n1Cc1ccccc1F` (stereo not given), the RP-LC retention time is 566 s. As to `COC(=O)c1[nH]c(C)c(C(=O)C(C)N(CC2CCCCC2)C(=O)c2ccc(F)cc2)c1C` (stereo not given), the RP-LC retention time stood at 1080 s. The figure for `CCOc1ccc(CNC(=O)c2cnc(OC)nc2)cc1` is 732 s.
